The nature of the experiment: Shell wheel test (corrosion inhibition). The conditions noted are these: 50 ppm of a 24% solution of the inhibitor; salt water/petroleum 9:1, 5% NaCl, pH 3.5; 40 rpm, 70° C., 24 hours; from decrease in coupon mass vs blank. As to the method:
The compounds according to the invention were tested as corrosion inhibitors in the Shell wheel test. Coupons of C steel (DIN 1.1203 with 15 cm^2 surface area) were immersed in a salt water/petroleum mixture (9:1, 5% strength NaCl solution adjusted to pH 3.5 with acetic acid) and exposed to this medium at a speed of 40 rpm at 70° C. for 24 hours. The inhibitor dose was 50 ppm of a 24% solution of the inhibitor. The protection values were calculated from the decrease in the mass of the coupons, based on a blank value.

In the case of `CCCCCCCC/C=C\CCCCCCCC(=O)NC(CCSC)C(=O)[O-].[K+]` (racemic) [Example 2, N-Oleoyl-DL-methionine Potassium Salt], the ø protection % is 69%.

For the origin of these results see patent US20090057618A1, “Corrosion inhibitors containing amphoteric surfactants” (Clariant International Ltd., priority 2007, published 2009).
